Results from patent publication US7153653B2, “Differentially methylated sequences in pancreatic cancer” (The Johns Hopkins University School of Medicine, priority 2001, dated 2006).

Experiments:
[1] = tested on: ppENK expression in pancreatic cancer cell lines PL3, CAPAN2, MiaPaca2 and Panc1; assay: RT-PCR analysis of ppENK expression after 5Aza-dC treatment; format: cell-based, human; conditions: 4 methylated cell lines (PL3, CAPAN2, MiaPaca2, Panc1), 5Aza-dC at a final concentration of 1 μM for 5 days, coamplified with GAPDH
Experimental: (§1) Five pancreatic cancer cell lines (PL3, PL8, CAPAN2, Panc1, and MiaPaca2) and four normal pancreata were used for RT-PCR analysis. The cell lines were treated with demethylating agent 5Aza-dC (Sigma Chemical Co.) at a final concentration of 1 μM for 5 days. Total RNA was prepared using TRIzol (Life Technologies, Inc.), reverse-transcribed and amplified. As a control for cDNA integrity, glyceraldehyde-3-phosphate dehydrogenase gene (GAPDH) was also amplified. Primer sequences for RT-PCR are listed in Table 3 and are available at http://pathology2.jhu.edu/pancreas/prim0425.htm, which website is incorporated herein by reference.
(§2) Partial methylation (˜50%) of the 5′ CpG island of Cyclin G in PL8 (FIG. 4C) was associated with decreased expression of Cyclin G by RT-PCR. The 5′ CpG island of Cyclin G was not methylated in a panel of normal pancreata. Cyclin G was expressed in 4 normal pancreata by RT-PCFR. […] Thus, hypermethylation of the 5′ CpG islands of Cyclin G and ppENK is coincides with decreased expression in pancreatic cancers.

[2] = tested on: Cyclin G expression in pancreatic cancer cell line PL8; assay: RT-PCR analysis of Cyclin G expression after 5Aza-dC treatment; format: cell-based, human; conditions: methylated cell line PL8, 5Aza-dC at a final concentration of 1 μM for 5 days, coamplified with GAPDH
Experimental: as §1, §2

[3] = listed as 5-aza-2′-deoxycytidine

Nc1ncn([C@H]2C[C@H](O)[C@@H](CO)O2)c(=O)n1 [5Aza-dC, 5-aza-2′-deoxycytidine]
ppENK expression by RT-PCR [1]: restored ppENK expression in all 4 cell lines | ppENK expression by RT-PCR [1, 3]: reversible | ppENK expression by RT-PCR ([1]; listed as 5 Aza-dC): restored the ppENK expression | Cyclin G expression by RT-PCR [2]: restored the expression of Cyclin G | Cyclin G expression by RT-PCR [2, 3]: reversible | Cyclin G expression by RT-PCR ([2]; listed as 5 Aza-dC): increased Cyclin G expression
